Values joined by “and” are separate entries in the source; they are usually repeats but may differ in a detail not shown here. Identical values can stand only once.
How the values were obtained:
[1] = tested on: rats chronically infused with ouabain (OS rats); experiment: Total urinary protein excretion in ouabain-infused (OS) rats; assay type: in vivo, rat
Protocol: (§1) To test the activity of the compound of the invention for the prevention of proteinuria and loss of renal glomerular proteins, rats chronically infused with ouabain (OS rats) or saline (Control rats) were utilized.
(§2) Two groups of 2-month-old OS rats (n=8 each) were orally treated by gavage with vehicle (Methocel 0.5%) or Rostafuroxin (100 μg/kg) for 8 weeks. One group of saline infused rats was used as control. After this period, systolic blood pressure and urinary protein excretion was measured in the three groups. The animals of the three groups were then sacrificed for nephrin quantification from renal cortex microsomes by Western blotting.
(§3) Three week-old male Sprague-Dawley rats (Harlan, Ind.), weighing 100-110 g, were subcutaneously implanted with osmotic mini-pumps, releasing either 15 μg/kg/day of ouabain (OS rats, n=16) for 14 weeks or sterile saline (CS rats, n=8) (Ferrari P. et al. J. Pharmacol Exp. Ther. 1998; 285: 83-94). […] Systolic blood pressure (SBP) and heart rate (HR) were measured weekly in conscious rats by tail-cuff plethysmography (BP recorder, U. Basile, Italy).
(§4) Urinary parameters were measured in conscious OS and control rats at the 12th week of treatment. […] After centrifugation (4500 rpm for 20 min; Varifuge 3.2 RS, Haereus Instruments, AHSI, Milan, Italy), rat urines were analyzed for the urinary volume (ml), quantified by weighing the urinary reservoir on a precision Mettler balance; urinary pH (pHM83, Radiometer, Copenhagen) and total urinary protein excretion (mg/24 h), measured with a standard total protein Kit (Sentinel Diagnostics, Milan, Italy). The animals of the three groups were then sacrificed, renal cortical microsomes were prepared from each rat and nephrin, the key protein of the slit diaphragm membrane, was quantified by Western blotting. […] Nephrin quantification is expressed as optical density, arbitrary units.

[2] = tested on: rats chronically infused with ouabain (OS rats); experiment: Nephrin quantification from renal cortex microsomes of OS rats by Western blotting; assay type: in vivo, rat
Protocol: as §1, §2, §3, §4

[3] = tested on: rats chronically infused with ouabain (OS rats); experiment: Systolic blood pressure by tail-cuff plethysmography in ouabain-infused (OS) rats; assay type: in vivo, rat
Protocol: as §1, §2
Three week-old male Sprague-Dawley rats (Harlan, Ind.), weighing 100-110 g, were subcutaneously implanted with osmotic mini-pumps, releasing either 15 μg/kg/day of ouabain (OS rats, n=16) for 14 weeks or sterile saline (CS rats, n=8) (Ferrari P. et al. J. Pharmacol Exp. Ther. 1998; 285: 83-94). At the 6th week of ouabain infusion, OS rats were randomly assigned to two groups (n=8 each): the first (OS treated) received Rostafuroxin orally at 100 μg/kg/day, suspended in 0.5% w/v Methocel, and the second group (controls) only vehicle. Systolic blood pressure (SBP) and heart rate (HR) were measured weekly in conscious rats by tail-cuff plethysmography (BP recorder, U. Basile, Italy).

Podocytes from NB rats = experiment: Podocyte protein quantification by Western blotting in cultured podocytes from NB rats; assay type: cell-based, rat
From the text: To test the activity of the compound of the invention for the prevention of loss of podocyte proteins, congenic NB rats carrying the beta adducin mutation (Tripodi G. et at Effect of Addl gene transfer on blood pressure in reciprocal congenic strains of Milan rats. BBRC 2004; 324: 562-568) were used. Said NB rats are non-hypertensive rats and are available at Prassis Research Institute, Sigma-tau, Italy.
NB rats of 7 to 10 days of age were used for podocyte isolation and culture. Podocytes from NB rats were incubated for 5 days without (NB control, n=4) and with Rostafuroxin at 10^−9M (NB n=5). Podocyte proteins were quantified at the end of the 5 days of incubation by Western blotting. The quantification by Western blot was replicated two to three times for each podocyte marker. Tables IA and IB show the final number of podocyte samples analyzed for each condition, as mean values of the replicates (NB control, n=4; NB+Rostafuroxin, n=5). The densitometric analysis was quantified as optical density, in arbitrary units.
Glomeruli were isolated from NB kidneys by sieving and further manually purification. Glomeruli were then seeded in culture flasks (Corning, Sigma-Aldrich, Milan, Italy), pre-coated with collagen type IV (Sigma-Aldrich) at 37° C. in 5% CO2 atmosphere. On days 4 to 5, podocyte growth started and, by day 8, glomeruli were detached using trypsin-EDTA. […] Podocyte protein quantification (10 μg protein/lane) was performed by Western blotting technique by using specific antibodies against nephrin, podocin, ZO-1, adducin, synaptopodin and actin.

[4] = OS rats orally treated for 8 weeks with Rostafuroxin 100 μg/kg/day, FIG. 6
[5] = NB + Rostafuroxin 10^-9M vs NB controls
[6] = NB podocytes, 5 days with Rostafuroxin 10^-9M, individual samples/replicates
[7] = NB podocytes, 5 days with Rostafuroxin 10^-9M, mean ± sem

C[C@]12CC[C@H](O)C[C@H]1CC[C@@H]1[C@@H]2CC[C@]2(C)[C@@](O)(c3ccoc3)CC[C@]12O [Rostafuroxin]
urinary protein excretion (in words) [1, 4]: significantly reduced | Proteinuria ([1]; OS rats, 100 μg/kg os Rostafuroxin, 24-hours urine, individual rats): 55.34 mg/24 h and 29.02 mg/24 h and 39.7 mg/24 h and 40.68 mg/24 h and 20.85 mg/24 h and 48.88 mg/24 h and 53.07 mg/24 h and 20.14 mg/24 h | Proteinuria, mean ± sem ([1]; OS rats, 100 μg/kg os Rostafuroxin, 24-hours urine, n = 8): 38.5 ± 4.9, n = 8 mg/24 h | Nephrin expression from renal cortex (in words) [2, 4]: increased | Nephrin optical density ([2]; OS rats, 100 μg/kg os Rostafuroxin for 8 weeks, renal cortex microsomes, individual rats): 51.4 arbitrary units and 50.8 arbitrary units and 76.1 arbitrary units and 57.4 arbitrary units and 48.8 arbitrary units and 53.8 arbitrary units and 64.7 arbitrary units and 54.8 arbitrary units | Nephrin optical density, mean ± sem ([2]; OS rats, 100 μg/kg os Rostafuroxin for 8 weeks, renal cortex microsomes, n = 8): 57.3 ± 3.1, n = 8 arbitrary units | systolic blood pressure (SBP) (in words) [3, 4]: significantly reduced | Systolic blood Pressure ([3]; OS rats, 100 μg/kg os Rostafuroxin for 8 weeks, individual rats): 155 mmHg (3×) and 145 mmHg (2×) and 150 mmHg (2×) and 135 mmHg | Systolic blood Pressure, mean ± sem ([3]; OS rats, 100 μg/kg os Rostafuroxin for 8 weeks, n = 8): 148.8 ± 2.5, n = 8 mmHg | Actin, % vs. Ctrl. (Podocytes from NB rats; [5]): ns | Nephrin, % vs. Ctrl. (Podocytes from NB rats; [5]): +34% | Podocin, % vs. Ctrl. (Podocytes from NB rats; [5]): +60% | Synaptopodin, % vs. Ctrl. (Podocytes from NB rats; [5]): +143% | ZO-1, % vs. Ctrl. (Podocytes from NB rats; [5]): +86% | α-Adducin, % vs. Ctrl. (Podocytes from NB rats; [5]): +95% | amounts of Nephrin, ZO-1, Podocin, α-Adducin and Synaptopodin (in words) (Podocytes from NB rats; NB podocytes cultured 5 days with 10^-9M Rostafuroxin, FIG. 5): increased | Synaptopodin, optical density (Podocytes from NB rats; NB podocytes, 5 days with Rostafuroxin 10^-9M, individual samples): 2.7 arbitrary units and 2.51 arbitrary units and 4.29 arbitrary units and 1.43 arbitrary units and 2.56 arbitrary units | Actin, optical density (Podocytes from NB rats; [6]): 130.5 arbitrary units and 115 arbitrary units and 87.5 arbitrary units and 140.4 arbitrary units and 111 arbitrary units and 98 arbitrary units and 98.2 arbitrary units and 81.2 arbitrary units and 86.2 arbitrary units and 101.2 arbitrary units and 101 arbitrary units and 144.2 arbitrary units and 87.7 arbitrary units and 108 arbitrary units and 103 arbitrary units and 91.6 arbitrary units | Nephrin optical density (Podocytes from NB rats; [6]): 24.53 arbitrary units and 27.06 arbitrary units | Podocin, optical density (Podocytes from NB rats; [6]): 23.4 arbitrary units and 49.06 arbitrary units and 13.3 arbitrary units and 19.07 arbitrary units and 16.81 arbitrary units and 18.63 arbitrary units and 21.42 arbitrary units and 18.78 arbitrary units and 23.84 arbitrary units and 36.51 arbitrary units and 21.23 arbitrary units and 23.65 arbitrary units and 27.62 arbitrary units | ZO-1, optical density (Podocytes from NB rats; [6]): 6.38 arbitrary units and 7.5 arbitrary units and 8.73 arbitrary units and 13.33 arbitrary units and 15.79 arbitrary units and 11.67 arbitrary units and 16.05 arbitrary units and 19.98 arbitrary units and 12.78 arbitrary units and 19.06 arbitrary units and 20.13 arbitrary units and 17.3 arbitrary units and 17.8 arbitrary units | α-Adducin, optical density (Podocytes from NB rats; [6]): 22.23 arbitrary units and 6.06 arbitrary units and 5.70 arbitrary units and 6.77 arbitrary units and 8.06 arbitrary units and 7.53 arbitrary units and 9.33 arbitrary units and 7.07 arbitrary units | Nephrin, optical density, mean (Podocytes from NB rats; NB podocytes, 5 days with Rostafuroxin 10^-9M, mean): 25.8 arbitrary units | Actin, optical density, mean ± sem (Podocytes from NB rats; [7]): 105.3 ± 4.75 arbitrary units | Podocin, optical density, mean ± sem (Podocytes from NB rats; [7]): 24.13 ± 2.6 arbitrary units | Synaptopodin, optical density, mean ± sem (Podocytes from NB rats; [7]): 2.70 ± 0.45 arbitrary units | ZO-1, optical density, mean ± sem (Podocytes from NB rats; [7]): 14.36 ± 1.3 arbitrary units | α-Adducin, optical density, mean ± sem (Podocytes from NB rats; [7]): 9.09 ± 1.9 arbitrary units

From patent US9868757B2, “5-β, 14-β-androstane derivatives useful for the treatment of proteinuria, glomerulosclerosis and renal failure” (SIGMA-TAU INDUSTRIE FARMACEUTICHE RIUNITE S.p.A., priority 2009, dated 2018)
